Legend:
Experiment in all cases: relative viability (nuclei count vs DMSO), 5 days (fraction); higher = more cells survive
201T = system: 201T
Method in brief: (§1)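 One day after seeding in 1536-well plates, lung cancer cell lines were dosed by pin tool. Dosing was either single-drug or a fixed anchor-drug dose plus five library-drug doses (not always all listed) in √10 steps. After 5 days, nuclei were stained in one fix-and-stain step and counted on 4× images, and relative viability is the nuclei count of treated wells over that of vehicle wells, given as the median of duplicate plates.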

LCLC-97TM1 = system: LCLC-97TM1
Method in brief: as §1

NCI-H650 = system: NCI-H650
Method in brief: as §1

A-427 = system: A-427
Method in brief: as §1

NCI-H460 = system: NCI-H460
Method in brief: as §1

NCI-H727 = system: NCI-H727
Method in brief: as §1

NCI-H2023 = system: NCI-H2023
Method in brief: as §1

BEN = system: BEN
Method in brief: as §1

NCI-H661 = system: NCI-H661
Method in brief: as §1

NCI-H1651 = system: NCI-H1651
Method in brief: as §1

PC-3 [JPC-3] = system: PC-3 [JPC-3]
Method in brief: as §1

NCI-H596 = system: NCI-H596
Method in brief: as §1

NCI-H1944 = system: NCI-H1944
Method in brief: as §1

NCI-H520 = system: NCI-H520
Method in brief: as §1

H3255 = system: H3255
Method in brief: as §1

LC-2-ad = system: LC-2-ad
Method in brief: as §1

NCI-H2087 = system: NCI-H2087
Method in brief: as §1

CAL-12T = system: CAL-12T
Method in brief: as §1

ABC-1 = system: ABC-1
Method in brief: as §1

NCI-H1915 = system: NCI-H1915
Method in brief: as §1

NCI-H441 = system: NCI-H441
Method in brief: as §1

Structure (SMILES): COc1cc2nccc(Oc3ccc(NC(=O)Nc4cc(C)on4)c(Cl)c3)c2cc1OC [Tivozanib] + C[C@]1(O)C[C@@H](c2nc(-c3ccc4ccc(-c5ccccc5)nc4c3)c3c(N)nccn32)C1 [Linsitinib] (partner 1 µM)
- relative viability (201T; first compound 0.005 µM): 1.1
- relative viability (201T; first compound 0.01581 µM): 0.984
- relative viability (201T; first compound 0.05 µM): 1.06
- relative viability (201T; first compound 0.1581 µM): 0.937
- relative viability (201T; first compound 0.5 µM): 1.02
- relative viability (LCLC-97TM1; first compound 0.005 µM): 0.154
- relative viability (LCLC-97TM1; first compound 0.01581 µM): 0.179
- relative viability (LCLC-97TM1; first compound 0.1581 µM): 0.187
- relative viability (LCLC-97TM1; first compound 0.5 µM): 0.178
- relative viability (NCI-H650; first compound 0.005 µM): 0.671
- relative viability (NCI-H650; first compound 0.01581 µM): 0.992
- relative viability (NCI-H650; first compound 0.05 µM): 0.859
- relative viability (NCI-H650; first compound 0.1581 µM): 0.736
- relative viability (NCI-H650; first compound 0.5 µM): 0.542
- relative viability (A-427; first compound 0.005 µM): 1.09
- relative viability (A-427; first compound 0.01581 µM): 1.1
- relative viability (A-427; first compound 0.05 µM): 1.23
- relative viability (A-427; first compound 0.1581 µM): 0.987
- relative viability (A-427; first compound 0.5 µM): 1.07
- relative viability (NCI-H460; first compound 0.005 µM): 0.783
- relative viability (NCI-H460; first compound 0.01581 µM): 0.806
- relative viability (NCI-H460; first compound 0.05 µM): 0.858
- relative viability (NCI-H460; first compound 0.1581 µM): 0.871
- relative viability (NCI-H460; first compound 0.5 µM): 0.733
- relative viability (NCI-H727; first compound 0.005 µM): 0.304
- relative viability (NCI-H727; first compound 0.01581 µM): 0.256
- relative viability (NCI-H727; first compound 0.05 µM): 0.244
- relative viability (NCI-H727; first compound 0.5 µM): 0.357
- relative viability (NCI-H2023; first compound 0.005 µM): 0.612
- relative viability (NCI-H2023; first compound 0.01581 µM): 0.669
- relative viability (NCI-H2023; first compound 0.05 µM): 0.761
- relative viability (NCI-H2023; first compound 0.1581 µM): 0.671
- relative viability (NCI-H2023; first compound 0.5 µM): 0.715
- relative viability (BEN; first compound 0.005 µM): 0.995
- relative viability (BEN; first compound 0.01581 µM): 0.871
- relative viability (BEN; first compound 0.05 µM): 0.984
- relative viability (BEN; first compound 0.5 µM): 0.912
- relative viability (NCI-H661; first compound 0.005 µM): 0.525
- relative viability (NCI-H661; first compound 0.01581 µM): 0.564
- relative viability (NCI-H661; first compound 0.05 µM): 0.498
- relative viability (NCI-H661; first compound 0.1581 µM): 0.707
- relative viability (NCI-H661; first compound 0.5 µM): 0.652
- relative viability (NCI-H1651; first compound 0.005 µM): 0.929
- relative viability (NCI-H1651; first compound 0.01581 µM): 0.988
- relative viability (NCI-H1651; first compound 0.05 µM): 0.87
- relative viability (NCI-H1651; first compound 0.1581 µM): 0.949
- relative viability (NCI-H1651; first compound 0.5 µM): 0.963
- relative viability (PC-3 [JPC-3]; first compound 0.005 µM): 0.903
- relative viability (PC-3 [JPC-3]; first compound 0.01581 µM): 0.921
- relative viability (PC-3 [JPC-3]; first compound 0.05 µM): 1
- relative viability (PC-3 [JPC-3]; first compound 0.1581 µM): 1.01
- relative viability (PC-3 [JPC-3]; first compound 0.5 µM): 0.915
- relative viability (NCI-H596; first compound 0.005 µM): 1.1
- relative viability (NCI-H596; first compound 0.01581 µM): 1.03
- relative viability (NCI-H596; first compound 0.05 µM): 0.953
- relative viability (NCI-H596; first compound 0.1581 µM): 0.952
- relative viability (NCI-H596; first compound 0.5 µM): 1.01
- relative viability (NCI-H1944; first compound 0.005 µM): 1.14
- relative viability (NCI-H1944; first compound 0.01581 µM): 1.2
- relative viability (NCI-H1944; first compound 0.05 µM): 1.29
- relative viability (NCI-H1944; first compound 0.1581 µM): 1.1
- relative viability (NCI-H1944; first compound 0.5 µM): 1.21
- relative viability (NCI-H520; first compound 0.005 µM): 0.838
- relative viability (NCI-H520; first compound 0.01581 µM): 0.966
- relative viability (NCI-H520; first compound 0.05 µM): 0.883
- relative viability (NCI-H520; first compound 0.1581 µM): 0.935
- relative viability (NCI-H520; first compound 0.5 µM): 0.821
- relative viability (H3255; first compound 0.005 µM): 0.965
- relative viability (H3255; first compound 0.01581 µM): 0.933
- relative viability (H3255; first compound 0.05 µM): 1.09
- relative viability (H3255; first compound 0.1581 µM): 1.05
- relative viability (H3255; first compound 0.5 µM): 0.891
- relative viability (LC-2-ad; first compound 0.005 µM): 0.86
- relative viability (LC-2-ad; first compound 0.01581 µM): 0.791
- relative viability (LC-2-ad; first compound 0.05 µM): 0.73
- relative viability (LC-2-ad; first compound 0.1581 µM): 0.526
- relative viability (LC-2-ad; first compound 0.5 µM): 0.616
- relative viability (NCI-H2087; first compound 0.005 µM): 0.928
- relative viability (NCI-H2087; first compound 0.01581 µM): 0.922
- relative viability (NCI-H2087; first compound 0.05 µM): 0.926
- relative viability (NCI-H2087; first compound 0.1581 µM): 1.04
- relative viability (NCI-H2087; first compound 0.5 µM): 0.81
- relative viability (CAL-12T; first compound 0.005 µM): 0.761
- relative viability (CAL-12T; first compound 0.01581 µM): 0.666
- relative viability (CAL-12T; first compound 0.05 µM): 0.717
- relative viability (CAL-12T; first compound 0.1581 µM): 0.713
- relative viability (CAL-12T; first compound 0.5 µM): 0.816
- relative viability (ABC-1; first compound 0.005 µM): 0.716
- relative viability (ABC-1; first compound 0.01581 µM): 0.887
- relative viability (ABC-1; first compound 0.05 µM): 0.676
- relative viability (ABC-1; first compound 0.1581 µM): 0.745
- relative viability (ABC-1; first compound 0.5 µM): 0.783
- relative viability (NCI-H1915; first compound 0.005 µM): 1.08
- relative viability (NCI-H1915; first compound 0.01581 µM): 1.14
- relative viability (NCI-H1915; first compound 0.05 µM): 1.12
- relative viability (NCI-H1915; first compound 0.1581 µM): 1.07
- relative viability (NCI-H1915; first compound 0.5 µM): 1.05
- relative viability (NCI-H441; first compound 0.005 µM): 0.588
- relative viability (NCI-H441; first compound 0.01581 µM): 0.56
- relative viability (NCI-H441; first compound 0.05 µM): 0.559
- relative viability (NCI-H441; first compound 0.1581 µM): 0.481
- relative viability (NCI-H441; first compound 0.5 µM): 0.559

Source: the supplement of paper PMC10307832
